Patent publication US12493040B2, “Cancer detection method using sense of smell of nematode” (HIROTSU BIO SCIENCE INC., priority 2013, dated 2025)

System: RNAi-treated eri-1 (mg366) nematodes
Assay: RNAi screening of olfactory receptor genes: chemotaxis assay of RNAi-treated nematodes to odorants
Assay type: in vivo, Caenorhabditis elegans
Conditions: low concentration of attractant
Outline: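 Chemotaxis of adult RNAi-fed eri-1 (mg366) nematodes (30–50 per test) was measured toward low (1 μl, 10^−3 or 10^−4 dilution) or high (1 and 5 μl neat) odorant doses. Knockdown: 4 days feeding on E. coli from Ahringer library with IPTG and ampicillin. Differences called by z score at ±1.96, weaker cutoff ±0.96.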

Cc1nc(C)c(C)s1 [trimethylthiazole]
chemotaxis index (Control nematodes): 0.64 ± 0.015
chemotaxis index (srh-10 RNAi-treated nematodes): 0.88
chemotaxis index (srh-11 RNAi-treated nematodes): 0.85
chemotaxis index (srh-15 RNAi-treated nematodes): 0.91
chemotaxis index (srh-16 RNAi-treated nematodes): 0.49
chemotaxis index (srh-18 RNAi-treated nematodes): 0.91
chemotaxis index (srh-19 RNAi-treated nematodes): 0.88
chemotaxis index (srh-22 RNAi-treated nematodes): 0.75
chemotaxis index (srh-23 RNAi-treated nematodes): 0.78
chemotaxis index (srh-24 RNAi-treated nematodes): 0.92
chemotaxis index (srh-25 RNAi-treated nematodes): 0.95
chemotaxis index (srh-27 RNAi-treated nematodes): 0.71
chemotaxis index (srh-28 RNAi-treated nematodes): 0.92
chemotaxis index (srh-36 RNAi-treated nematodes): 0.51
chemotaxis index (srh-37 RNAi-treated nematodes): 0.87
chemotaxis index (srh-39 RNAi-treated nematodes): 0.45
chemotaxis index (srh-40 RNAi-treated nematodes): 0.73
chemotaxis index (srh-41 RNAi-treated nematodes): 0.85
chemotaxis index (srh-44 RNAi-treated nematodes): 0.90
chemotaxis index (srh-45 RNAi-treated nematodes): 0.73
chemotaxis index (srh-46 RNAi-treated nematodes): 0.83
chemotaxis index (srh-48 RNAi-treated nematodes): 0.65
chemotaxis index (srh-49 RNAi-treated nematodes): 0.59
chemotaxis index (srh-50 RNAi-treated nematodes): 0.84
chemotaxis index (srh-51 RNAi-treated nematodes): 0.64
chemotaxis index (srh-52 RNAi-treated nematodes): 0.55
chemotaxis index (srh-55 RNAi-treated nematodes): 0.56
chemotaxis index (srh-59 RNAi-treated nematodes): 0.37
chemotaxis index (srh-60 RNAi-treated nematodes): 0.79
chemotaxis index (srh-61 RNAi-treated nematodes): 0.70
chemotaxis index (srh-67 RNAi-treated nematodes): 0.63
chemotaxis index (srh-68 RNAi-treated nematodes): 0.57
chemotaxis index (srh-69 RNAi-treated nematodes): 0.75
chemotaxis index (srh-70 RNAi-treated nematodes): 0.78
chemotaxis index (srh-71 RNAi-treated nematodes): 0.85
chemotaxis index (srh-72 RNAi-treated nematodes): 0.58
chemotaxis index (srh-74 RNAi-treated nematodes): 0.44
chemotaxis index (srh-75 RNAi-treated nematodes): 0.54
chemotaxis index (srh-77 RNAi-treated nematodes): 0.52
chemotaxis index (srh-79 RNAi-treated nematodes): 0.42
chemotaxis index (srh-80 RNAi-treated nematodes): 0.39
chemotaxis index (srh-82 RNAi-treated nematodes): 0.71
chemotaxis index (srh-83 RNAi-treated nematodes): 0.86
chemotaxis index (srh-97 RNAi-treated nematodes): 0.77
chemotaxis index (srh-99 RNAi-treated nematodes): 0.65
chemotaxis index (srh-100 RNAi-treated nematodes): 0.62
chemotaxis index (srh-104 RNAi-treated nematodes): 0.65
chemotaxis index (srh-105 RNAi-treated nematodes): 0.66
chemotaxis index (srh-109 RNAi-treated nematodes): 0.76
chemotaxis index (srh-111 RNAi-treated nematodes): 0.37
chemotaxis index (srh-113 RNAi-treated nematodes): 0.83
chemotaxis index (srh-115 RNAi-treated nematodes): 0.47
chemotaxis index (srh-116 RNAi-treated nematodes): 0.56
chemotaxis index (srh-118 RNAi-treated nematodes): 0.73
chemotaxis index (srh-119 RNAi-treated nematodes): 0.71
chemotaxis index (srh-120 RNAi-treated nematodes): 0.72
chemotaxis index (srh-122 RNAi-treated nematodes): 0.44
chemotaxis index (srh-123 RNAi-treated nematodes): 0.56
chemotaxis index (srh-125 RNAi-treated nematodes): 0.70
chemotaxis index (srh-128 RNAi-treated nematodes): 0.62
chemotaxis index (srh-129 RNAi-treated nematodes): 0.69
chemotaxis index (srh-130 RNAi-treated nematodes): 0.70
chemotaxis index (srh-214 RNAi-treated nematodes): 0.78
chemotaxis index (srh-216 RNAi-treated nematodes): 0.73
chemotaxis index (srh-217 RNAi-treated nematodes): 0.60
chemotaxis index (srh-220 RNAi-treated nematodes): 0.52
chemotaxis index (srh-222 RNAi-treated nematodes): 0.58
chemotaxis index (srh-223 RNAi-treated nematodes): 0.76
chemotaxis index (srh-227 RNAi-treated nematodes): 0.76
chemotaxis index (srh-229 RNAi-treated nematodes): 0.69
chemotaxis index (srh-233 RNAi-treated nematodes): 0.38
chemotaxis index (srh-235 RNAi-treated nematodes): 0.58
chemotaxis index (srh-236 RNAi-treated nematodes): 0.64
chemotaxis index (srh-239 RNAi-treated nematodes): 0.84
chemotaxis index (srh-241 RNAi-treated nematodes): 0.85
chemotaxis index (srh-243 RNAi-treated nematodes): 0.63
chemotaxis index (srh-244 RNAi-treated nematodes): 0.76
chemotaxis index (srh-247 RNAi-treated nematodes): 0.54
chemotaxis index (srh-250 RNAi-treated nematodes): 0.58
chemotaxis index (srh-251 RNAi-treated nematodes): 0.64
chemotaxis index (srh-252 RNAi-treated nematodes): 0.64
chemotaxis index (srh-258 RNAi-treated nematodes): 0.75
chemotaxis index (srh-261 RNAi-treated nematodes): 0.72
chemotaxis index (srh-264 RNAi-treated nematodes): 0.74
chemotaxis index (srh-266 RNAi-treated nematodes): 0.25
chemotaxis index (srh-274 RNAi-treated nematodes): 0.60
chemotaxis index (srh-275 RNAi-treated nematodes): 0.53
chemotaxis index (srh-276 RNAi-treated nematodes): 0.59
chemotaxis index (srh-277 RNAi-treated nematodes): 0.65
chemotaxis index (srh-279 RNAi-treated nematodes): 0.61
chemotaxis index (srh-281 RNAi-treated nematodes): 0.55
chemotaxis index (srh-282 RNAi-treated nematodes): 0.79
chemotaxis index (srh-283 RNAi-treated nematodes): 0.56
chemotaxis index (srh-284 RNAi-treated nematodes): 0.59
chemotaxis index (srh-291 RNAi-treated nematodes): 0.91
chemotaxis index (srh-292 RNAi-treated nematodes): 0.78
chemotaxis index (srh-293 RNAi-treated nematodes): 0.82
chemotaxis index (srh-297 RNAi-treated nematodes): 0.56
chemotaxis index (srh-298 RNAi-treated nematodes): 0.82
chemotaxis index (srh-308 RNAi-treated nematodes): 0.30
